Test results published in the NIST ThermoML archive (doi:10.1016/j.jct.2012.07.022).

Conditions: 101 kPa, Liquid; for electrical conductivity: Alternating current cell with electrodes; for viscosity: Capillary tube (Ostwald / Ubbelohde) method; for mass density: Vibrating tube method

O=c1cc[nH]c(=O)[nH]1 [2,4(1H,3H)-pyrimidinedione]
Conditions | electrical conductivity [S/m] | mass density [kg/m3] | viscosity [mPa·s]
298.15 K | 0.296 | 1097.6 | 128.5
303.15 K | 0.382 | 1094.5 | 95.23
308.15 K | 0.48 | 1091.4 | 72.42
313.15 K | 0.594 | 1088.4 | 56.38
318.15 K | 0.827 | 1085.3 | 44.79
323.15 K | 0.986 | 1082.3 | 36.23
328.15 K | – | 1079.3 | 29.78
333.15 K | – | 1076.2 | 24.82
338.15 K | – | 1073.3 | 20.95
343.15 K | – | 1070.3 | 17.88

Nc1[nH]cnc2ncnc1-2 [6-amino-1H-purine]
Conditions | electrical conductivity [S/m] | mass density [kg/m3] | viscosity [mPa·s]
298.15 K | 0.296 | 1097.6 | 128.5
303.15 K | 0.382 | 1094.5 | 95.23
308.15 K | 0.48 | 1091.4 | 72.42
313.15 K | 0.594 | 1088.4 | 56.38
318.15 K | 0.827 | 1085.3 | 44.79
323.15 K | 0.986 | 1082.3 | 36.23
328.15 K | – | 1079.3 | 29.78
333.15 K | – | 1076.2 | 24.82
338.15 K | – | 1073.3 | 20.95
343.15 K | – | 1070.3 | 17.88
